In publication PMC6016998 (2018) one finds binding and KD data, which are given here for 2 compounds.

Broadly, the KD is the free concentration of one partner at which half of the binding sites on the other are occupied at equilibrium, for simple one-to-one binding. The low end stands for tighter binding, the high end for weaker binding.

The assay has as its system ochratoxin A aptamer, 0 complementary bp (no tail) (DNA, aptamer) GATCGGGTGTGGGTGGCGTAAAGGGAGCATCGGACA
In words: electrochemical aptamer-based sensor, square wave voltammetry (KDM). The note with it: 1X PBS pH 7.4, room temperature.

SMILES strings stand for the structures.

Turning to `CCCC[C@@H](C)[C@@H](OC(=O)C[C@@H](CC(=O)O)C(=O)O)[C@H](C[C@@H](C)C[C@H](O)CCCC[C@@H](O)C[C@H](O)[C@H](C)N)OC(=O)C[C@@H](CC(=O)O)C(=O)O`, the binding result (tested at 10 µM only, no KDM signal) was “no”. For `C[C@@H]1Cc2c(Cl)cc(C(=O)N[C@@H](Cc3ccccc3)C(=O)O)c(O)c2C(=O)O1`, the KD (1X PBS (Na+, K+; concentrations not given), undiluted iced coffee rows (ions not given), flowing, KDM of 240 Hz and 20 Hz) amounted to 6.5 ± 0.6 µM.
